# Experiments:
# [1] = tested on: human neuroblastoma 5Y cells; assay: MTT cytotoxicity assay; assay type: cell-based; conditions: at up to 100 μM; 24 h; 5Y cells; relative to DMSO
# Procedure: Flavonoid 6 was synthesized following previously reported procedures with modifications.[66–68] […] It should be noted that cell viability was calculated, relative to that of the cells containing an equivalent amount of DMSO.
# (§1) Cell viability was determined by the MTT assay [MTT = 3-(4,5-dimethylthiazol-2-yl)-2,5-diphenyltetrazolium bromide]. Cells were seeded in a 96-well plate (15,000 cells/100 µL) and treated with the samples {[flavonoid] = 5, 10, 25, 50, and 100 µM (1% v/v DMSO)}. After 24 h incubation, 5Y cells were washed with phosphate buffered saline (PBS; GIBCO). MTT [5 mg/mL in PBS (pH 7.4, GIBCO); 25 µL] was added to each well and the plate was incubated for 4 h at 37 °C. The formazan produced by cells was solubilized using an acidic solution of DMF (pH 4.5, 50% v/v, aq) and sodium dodecyl sulfate (SDS; 20% w/v) overnight at room temperature in the dark. Absorbance was measured at 600 nm by a microplate reader (Molecular Devices). Cell viability, relative to that of the cells containing an equivalent amount of DMSO, was calculated.
# (§2) The measurements were conducted in triplicate. […]
# Aβ40 = molecular target: T1, Aβ40 (Homo sapiens, UniProt P05067); assay: ESI-MS and ESI-MS2 of Aβ40 treated with 6; conditions: 6 200 μM, 3 h
# T1 construct: Ab40 ([…]-; purchased Peptide Institute, Inc. (Osaka, Japan)
# T1 sequence (P05067 672-711 limits assumed): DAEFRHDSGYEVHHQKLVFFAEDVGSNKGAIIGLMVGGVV
# From the text: To identify the modifications of Aβ in both the absence and presence of Cu(II) upon treatment of 6, we carried out the studies employing electrospray ionization mass spectrometry (ESI-MS). In the sample containing metal-free Aβ42 and 6, the addition of +16 Da into the +3-charged Aβ42 monomer, assigned to be the oxidized monomeric Aβ42, was detected (Fig. 7a), while such oxidation was not observed under anaerobic conditions (Fig. S20 ^†). To determine the oxidized amino acid residues in Aβ42, the b fragments generated by collision-induced dissociation were analyzed by tandem MS (ESI-MS^2). As illustrated in Fig. 7b and S21a, ^† the Met35 residue was measured to be the oxidation site in the singly oxidized Aβ42. […] Similar to metal-free Aβ42, the oxidation of Aβ40 at the Met35 residue was monitored by incubation with 6 (Fig. S22a, b and S23a ^†). […]
# 2D 1H−15N SOFAST-HMQC NMR Experiments. […] Experimental data were processed with NMRpipe29 and Sparky 3.115.30 The 1H and 15N assignments of 15N-labeled Ab were determined based on the previous results.21,31 The chemical shift perturbation was calculated following the equation (eq 4).32 Note that DdH and DdN represent the alterations in the chemical shifts of 1H and 15N of 15N-labeled Ab, respectively. […]
# 15N-labeled Aβ42 = molecular target: T2, 15N-labeled Aβ42 (Homo sapiens, UniProt P05067); assay: 2D SOFAST-HMQC NMR with 15N-labeled Aβ42; assay type: binding; conditions: 15N-Aβ42 33 μM; 6 100 μM; 10 °C
# T2 construct: the human Ab42 peptide was artificially constructed using codons; extra Met residue (start codon) before Asp1 (N); made in house; host or cells: E. coli BL21 (DE3) pLysS, pAED4 vector
# T2 sequence (P05067 671-713 limits assumed): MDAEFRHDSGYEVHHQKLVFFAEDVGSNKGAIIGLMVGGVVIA
# Procedure: as §1, §2
# loading into the instrument. […]
# The initial delay and the reference power were 60 s and 10 µcal/s, […]
# The ITC thermogram and binding isotherm were shown after the subtraction of the dilution heat.
# The binding isotherm after baseline correction was fitted to the one-set-of-sites binding model using the MicroCal Origin software (version 7.0).
# Expression and Purification of 15N-labeled Recombinant Ab42. […]
smiles,measurement,setting,value
"O=c1c(-c2ccc(O)c(O)c2)coc2cc(O)c(O)c(O)c12 [compound 6, 3-(3,4-dihydroxyphenyl)-5,6,7-trihydroxy-4H-chromen-4-one]",cell survival,[1],> 90%
same,plausible oxidation sites in singly oxidized Aβ,"Aβ40; Cu(II)–Aβ40, Cu(II) 100 μM","His13, His14, and Met35"
same,oxidation site in singly oxidized Aβ,Aβ40; metal-free Aβ40 100 μM,Met35
same,decrease of overall NMR peak intensity,15N-labeled Aβ42,ca. 20%
